Results published in the NIST ThermoML archive (doi:10.1016/j.jct.2011.07.014).

Settings: Liquid, Transpiration method

CC(=O)CCC(=O)O [4-oxopentanoic acid]
Settings	vapor or sublimation pressure [kPa]
328.4 K	0.00705
333.4 K	0.01045
338.3 K	0.01414
343.3 K	0.02096
343.4 K	0.02019
348.3 K	0.02702
353.3 K	0.0381
358.3 K	0.05278
358.4 K	0.05148
363.4 K	0.07587
368.4 K	0.101
373.4 K	0.1349
